In PMC9387934, “Randomized single oral dose phase 1 study of safety, tolerability, and pharmacokinetics of Iminosugar UV-4 Hydrochloride (UV-4B) in healthy subjects” (PLoS Neglected Tropical Diseases, 2022):
Read-outs that look alike come from different tables or passages of the source.

Assay: Phase 1a single ascending dose study: UV-4 in pooled urine, urinary recovery and renal clearance
Assay type: in vivo, human
Conditions: for dose excreted: human, urine, oral, 48 hours
Description: Serial blood samples were collected at pre-dose (0 hour) and 0.5, 1, 1.5, 2, 2.5, 3, 4, 6, 9, 12, 18, 24, 36, and 48 hours post-dose for assessment of UV-4 concentrations in plasma. Pooled urine samples were collected at pre-dose (-12 to 0 hour) and from 0 to 6, 6 to 12, 12 to 24, and 24 to 48 hours post-dose for assessment of UV-4 concentrations in urine. Plasma and urine concentrations of UV-4 were determined by means of validated, sensitive, and specific high-performance liquid chromatography/tandem mass spectrometric (LC-MS/MS) assays. UV-4 plasma and urine concentrations and PK parameters were listed and summarized by dose, as appropriate. Only the 48 subjects who received active investigational product were included in the PK analysis population.
8.2.3 Specimen Preparation, Handling, and Shipping
8.2.3.1 Instructions for Specimen Preparation, Handling, and Storage
The collected PK blood samples (2 mL) will be placed on ice after blood draw, and within 1 hour centrifuged at room temperature at approximately 3000 revolutions per minute for 15 minutes. Plasma will then be harvested and split into 4 aliquots of approximately 250 μ L and stored frozen at -20°C until shipped.
Urine samples (approximately 10 mL) for determination of UV-4 concentrations in urine will be taken from the total volume provided during each collection period. The total volume of each urine collection will be recorded along with the start/stop time for each urine collection interval.
Analysis of plasma and urine for UV-4 will be performed by the qualified bioanalytical laboratory, Quintiles Bioservices, Inc., Ithaca, New York 14950. Instructions for the proper preparation, handling, storage and shipping of specimens will be provided separately in a study-specific laboratory manual (i.e., Biopacket).
8.2.3.2 Specimen Shipment […]
The following single-dose urine PK parameters will be estimated from the UV-4 urine concentration-time data collected, as appropriate:
Ae Amount of UV-4 excreted in urine unchanged, calculated for each collection interval and cumulatively across intervals fe Fraction of UV-4 excreted in urine unchanged, calculated for each collection interval and cumulatively across intervals […]
Additional UV-4 PK parameters may be calculated at the discretion of the […]
Plasma concentrations and plasma and urine PK parameters will be summarized by treatment using descriptive statistics, as appropriate. Figures for the arithmetic mean (and SD) concentration-time data will be presented for all doses on both a linear and semi-logarithmic scale. Individual concentration-time data will be graphically presented on linear and semi-logarithmic scales. Scatter plots of individual and geometric mean PK parameters versus dose will be presented. Additional graphical presentations of PK data may be added at the discretion of the PK analyst.
Dose proportionality of Cmax, AUC(0-last), and AUC(0-inf) will be assessed graphically and statistically using the power model approach with the logarithm of PK parameters AUC(0-inf) and Cmax as the dependent variables and the logarithm of the dose as the independent variable: ([AUC(0-inf), AUC(0-last), or Cmax]=α *doseβ).
11.4.7 Deviation from Original Analysis Plan
Deviations from the formal statistical analysis plan will be noted in the final Clinical Study

**Q.** For `COCCCCCCCCCN1C[C@H](O)[C@@H](O)[C@H](O)[C@H]1CO` [UV-4, N-(9’-methoxynonyl)-1-deoxynojirimycin], which “Time over which UV-4 was quantifiable in pooled urine” value (all doses (3 to 1000 mg), entire collection interval) is on record?
**A.** Its value is 48 h.

**Q.** What about the dose excreted (3 to 1000 mg dose range, read-out: UV-4 recovery in urine, range of dose group means) of the same molecule?
**A.** Its dose excreted is 39.8 to 55.1%.

**Q.** And the dose excreted (10 to 1000 mg dose range, read-out: Urinary recovery, range of dose group means)?
**A.** Its dose excreted is 46.4 to 55.1%.

**Q.** And the “Renal clearance as share of UV-4 apparent systemic clearance” value (in vivo)?
**A.** Its value is ≥ 50%.
